According to patent US20220273590A1, “COMPOUNDS FOR PREVENTION AND TREATMENT OF POST-OPERATIVE COGNITIVE DYSFUNCTION” (ABREXA PHARMACEUTICALS, INC., priority 2019, published 2022):
Like-named read-outs stand apart in the source and are kept apart here.

What was measured:
[1] = tested on: animal model of POCD; experiment: Morris Water Maze (MWM) after abdominal surgery; format: in vivo, Wistar rats; conditions: chronically treated rats
Procedure: Male Wistar rats (˜350 g) were randomly divided into 4 experimental groups; non-surgery; control abdominal surgery; surgery+acute J147 treatment (7 mg/rat by gavage, 4-5 hours before surgery); surgery+chronic J147 (500 mg/kg food, 1 week before surgery until the end of the study). Timed blood samples were collected. Days 9-11 post surgery, general behavior (Open field: OF) and cognitive performance (Novel Object/Novel Location Recognition: NOR/NLR; Morris Water Maze: MWM) were tested. Day 14, rats were sacrificed and blood and brain tissue were collected for further analyses. (Neuro)inflammation was examined by circulating cytokine levels and microglia activation in the brain.
Abdominal surgery was performed as described previously by Hovens et al., 2014. Rats were anaesthetized using sevoflurane (±2.5% in air/O2=2/1) and received 0.01 mg/kg buprenorphine s.c. A heating blanket was used to preserve body temperature. An incision was made along the linea alba and the intestines were exteriorised. […]
The second day started with a probe trial to assess early spatial memory. […] We measured how often the rat crossed the place of the platform and how much time he spent in the target quadrant. […]

[2] = Brain levels of J147 after oral administration in Basis suspension; format: in vivo, Adult Wister Rats; conditions: oral 20 mg/kg in Basis suspension, PO_B satellite
Procedure: Plasma samples obtained during surgery in J147-treated rats and 3 control rats were measured for circulating levels of J147. Results of pharmacokinetic measures of both plasma and brain levels of J147 in rats following oral administration of J147 in basis suspension at 20 mg/kg and also following intravascular administration at 5 mg/kg are shown in Table 2A-C below. When taking the absence of an appropriate peak as zero, mean concentration is 0 ng/ml in controls, 3.103 ng/ml in acutely treated rats and 0.233 ng/ml in chronically treated rats. J147 levels in food were verified as well (467 mg/kg). […] During the first 10 days after surgery and individual housing, rats on the diet ate on average 20±1 g, which was similar to the 20±1 g in surgery with control food and 23±1 g in non-surgery controls, verifying the anticipated intake of 10 mg J147/rat/day and further supporting no preference or aversion for the diet food.
Tables 2A-2B. Pharmacokinetic Measures of Plasma and Brain Levels of J147 Formulated in Basis Suspension Administered Orally to Adult Wister Rats at 20mg/kg.
• All of the brain samples were added with […] by brain weight (g) to PBS volume (mL) ratio 1:3 for homogenization. • The actual concentration (ng/g) is the detected value (ng/mL) multiplied by 4. • BLOQ: Below limit of quantitation (LLOQ: 2 ng/g) • NA: not available

COc1cccc(/C=N/N(C(=O)C(F)(F)F)c2ccc(C)cc2C)c1 [J147]
spatial and reversal learning (MWM), effect of treatment [1]: not affected
spatial memory in the MWM [1]: significantly improved spatial memory
concentration at 0.25 h ([2]; Wistar, rat, brain homogenate, po, 20 mg/kg, brain homogenate 1:3, Group 1, Group 2, LLOQ 2 ng/g, read-out: Brain Detected Conc.): 0.736 ng/mL
concentration at 0.5 h ([2]; Wistar, rat, brain homogenate, po, 20 mg/kg, 0.5 h, brain homogenate 1:3, Group 1, Group 2, LLOQ 2 ng/g, read-out: Brain Detected Conc.): 1.14 ng/mL
concentration at 1 h ([2]; Wistar, rat, brain homogenate, po, 20 mg/kg, 1 h, brain homogenate 1:3, Group 1, Group 2, LLOQ 2 ng/g, read-out: Brain Detected Conc.): 7.01 ng/mL
concentration at 8 h ([2]; Wistar, rat, brain homogenate, po, 20 mg/kg, 8 h, brain homogenate 1:3, Group 1, Group 2, LLOQ 2 ng/g, read-out: Brain Detected Conc.): 0.831 ng/mL
concentration at 0.25 h ([2]; Wistar, rat, brain, po, 20 mg/kg, detected value multiplied by 4, Group 1, Group 2, read-out: Brain Actual Conc.): 2.94 ng/g
concentration at 0.5 h ([2]; Wistar, rat, brain, po, 20 mg/kg, 0.5 h, detected value multiplied by 4, Group 1, Group 2, read-out: Brain Actual Conc.): 4.56 ng/g
concentration at 0.5 h ([2]; Wistar, rat, brain, po, 20 mg/kg, 0.5 h, mean of Group 1 and 2, read-out: Brain Actual Conc. Mean): 3.94 ng/g
concentration at 1 h ([2]; Wistar, rat, brain, po, 20 mg/kg, 1 h, detected value multiplied by 4, Group 1, Group 2, read-out: Brain Actual Conc.): 28 ng/g
concentration at 1 h ([2]; Wistar, rat, brain, po, 20 mg/kg, 1 h, mean of Group 1 and 2, read-out: Brain Actual Conc. Mean): 23.7 ng/g
concentration at 2 h ([2]; Wistar, rat, brain, po, 20 mg/kg, 2 h, mean of Group 1 and 2, read-out: Brain Actual Conc. Mean): 28 ng/g
concentration at 4 h ([2]; Wistar, rat, brain, po, 20 mg/kg, 4 h, mean of Group 1 and 2, read-out: Brain Actual Conc. Mean): 20.6 ng/g
concentration at 8 h ([2]; Wistar, rat, brain, po, 20 mg/kg, 8 h, detected value multiplied by 4, Group 1, Group 2, read-out: Brain Actual Conc.): 3.32 ng/g
concentration at 8 h ([2]; Wistar, rat, brain, po, 20 mg/kg, 8 h, mean of Group 1 and 2, read-out: Brain Actual Conc. Mean): 3.26 ng/g
Brain Detected Conc. ([2]; 0.5 h, brain homogenate 1:3, Group 1, Group 2, LLOQ 2 ng/g, 20 mg/kg): 0.830 ng/mL
Brain Actual Conc. ([2]; 0.5 h, detected value multiplied by 4, Group 1, Group 2, 20 mg/kg): 3.32 ng/g
Brain Detected Conc. ([2]; 1 h, brain homogenate 1:3, Group 1, Group 2, LLOQ 2 ng/g, 20 mg/kg): 4.83 ng/mL
Brain Actual Conc. ([2]; 1 h, detected value multiplied by 4, Group 1, Group 2, 20 mg/kg): 19.3 ng/g
Brain Detected Conc. ([2]; 8 h, brain homogenate 1:3, Group 1, Group 2, LLOQ 2 ng/g, 20 mg/kg): 0.799 ng/mL
Brain Actual Conc. ([2]; 8 h, detected value multiplied by 4, Group 1, Group 2, 20 mg/kg): 3.20 ng/g
Brain Detected Conc. ([2]; 12 h, brain homogenate 1:3, Group 1, Group 2, LLOQ 2 ng/g): BLOQ
Brain Detected Conc. ([2]; 16 h, brain homogenate 1:3, Group 1, Group 2, LLOQ 2 ng/g): BLOQ
Brain Detected Conc. ([2]; 20 h, brain homogenate 1:3, Group 1, Group 2, LLOQ 2 ng/g): BLOQ
Brain Detected Conc. ([2]; 24 h, brain homogenate 1:3, Group 1, Group 2, LLOQ 2 ng/g): BLOQ
